Assay results published in PubChem BioAssay (NCI).
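How tested: cells in 96-well plates exposed to compound for 48 hours at five concentrations. At the GI50, growth is halved. TGI: total growth inhibition.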

Experiments:
Assay in all cases: DTP human tumour cell line panel, 48 h
[1] = system: RPMI-8226 leukemia
[2] = system: HOP-62 NSCLC
[3] = system: SR leukemia
[4] = system: TK-10 renal
[5] = system: SK-MEL-28 melanoma
[6] = system: SF-268 CNS
[7] = system: COLO 205 colon
[8] = system: ACHN renal
[9] = system: M14 melanoma
[10] = system: SNB-75 CNS

Structure (SMILES) | TGI [1] [µM] | TGI [2] [µM] | TGI [3] [µM] | TGI [4] [µM] | TGI [5] [µM] | TGI [6] [µM] | TGI [7] [µM] | TGI [8] [µM] | TGI [9] [µM] | TGI [10] [µM] | GI50 [1] [µM] | GI50 [8] [µM] | GI50 [4] [µM] | GI50 [5] [µM] | GI50 [6] [µM] | GI50 [10] [µM] | GI50 [7] [µM]
CCC12CCCN(Cc3ccccc3)C1c1c(n(C)c3ccccc13)C(CO)C2 (stereo not drawn) | 108 | 73.6 | 105 | 246 | 150 | > 257 | 75.2 | – | – | – | – | – | – | – | – | – | –
COc1cc(C2c3cc4c(cc3OC(NNC(N)=O)C2C)OCO4)cc(OC)c1OC (stereo not drawn) | > 58.1 | – | – | > 100 | > 100 | > 100 | 0.613 | > 62.2 | > 44.9 | > 87.9 | – | – | – | – | – | – | –
Cc1ccccc1NC(=O)Cc1csc(N/N=C2\NC(=O)/C(=C/c3cccc([N+](=O)[O-])c3)S2)n1 | – | 92.5 | – | 36.9 | 55.3 | – | > 100 | 28.9 | 31.3 | 34 | – | – | – | – | – | – | –
CC[C@@]1(O)C[C@H](OC2CC(N(C)C)C(O)C(C)O2)c2c(cc3c(c2O)C(=O)c2c(O)ccc(O)c2C3=O)[C@H]1C(=O)OC (stereo partly drawn) | 0.388 | 0.672 | – | – | 0.462 | 0.68 | 0.359 | – | – | 0.354 | – | – | – | – | – | – | –
COC(=O)CN(CC(=O)NCCCBr)C1CCCCC1N(CC(=O)OC)CC(=O)OC (stereo not drawn) | > 100 | > 100 | > 100 | > 100 | > 100 | > 100 | > 100 | > 100 | – | 64.9 | – | – | – | – | – | – | –
CC#C[C@]1(O)CCC2[C@@H]3CCC4=CC(=O)CCC4=C3[C@@H](c3ccc(N(C)C)cc3)C[C@@]21C (stereo partly drawn) | 7.15 | 50.3 | 37.1 | 43.1 | 29.5 | 27.6 | 24.1 | > 100 | 32.1 | – | – | – | – | – | – | – | –
CCC(C)(C)c1cc(O)c(C(C)(C)CC)cc1O | 9.09 | – | – | 8.19 | 10.9 | 15.6 | 5.28 | 16.1 | – | 16.5 | 2.41 | 4.62 | 2.46 | 2.82 | 3.92 | 3.14 | 2.42
CC(C)(C)N/N=C(\C(=O)Nc1cccc(Cl)c1)C1C(=O)Nc2ccccc2S1=O (stereo not drawn) | – | > 100 | > 100 | > 100 | > 100 | > 100 | > 100 | > 100 | > 100 | > 100 | – | – | – | – | – | – | –
CN(C)C(=O)Oc1c(Br)cc(Br)cc1C(=O)OCc1ccccc1 | 52.4 | > 71.2 | – | – | 97.3 | > 100 | 34 | – | – | 97 | – | – | – | – | – | – | –
O=c1[nH]c2ccccc2c(O)c1Cc1ccccc1 | > 100 | > 100 | > 100 | > 100 | > 100 | > 100 | > 100 | > 100 | – | > 100 | – | – | – | – | – | – | –
Cc1c(C(=O)O)n2c(=S)[nH]nc2c2ccccc12 | > 100 | > 100 | > 100 | > 100 | > 100 | > 100 | > 100 | > 100 | > 100 | – | – | – | – | – | – | – | –
Nc1nc(Cl)cc(OCC2(CO)CCCC2)n1 | > 100 | > 100 | – | > 100 | > 100 | > 100 | – | > 100 | – | > 100 | – | – | – | – | – | – | –
CCCCCCSc1nc(N)nc2nc[nH]c12 | > 100 | > 100 | – | – | > 100 | > 100 | > 100 | – | – | 71.7 | – | – | – | – | – | – | –
Cc1cc2c(c(C(=O)NCC(=O)N[C@@H](C)C(=O)OCc3ccccc3)c1)Oc1c(cc(C)cc1C(=O)NCC(=O)N[C@@H](C)C(=O)OCc1ccccc1)S2 | > 100 | > 100 | > 100 | – | – | > 100 | > 100 | > 100 | > 100 | 46.1 | – | – | – | – | – | – | –
O=C(NC(=S)Nc1ccc([N+](=O)[O-])cc1)c1ccc2c(c1)Sc1ccccc1O2 | – | > 100 | > 100 | > 100 | > 100 | > 100 | > 100 | > 100 | > 100 | 29.6 | – | – | – | – | – | – | –
COc1cccc2c1OC1Sc3ccccc3-c3nn(-c4ccccc4)c-2c31 (stereo not drawn) | > 100 | > 100 | – | > 100 | > 100 | > 100 | > 100 | > 100 | – | > 100 | – | – | – | – | – | – | –
O=c1[nH]c(=O)c2ncn(-c3ccc([N+](=O)[O-])cn3)c2[nH]1 | > 100 | > 100 | – | > 100 | > 100 | > 100 | > 100 | > 100 | > 100 | > 100 | – | – | – | – | – | – | –
CCOC(=O)c1[nH]cc(C)c1-c1cccn1-c1ccc(Cl)cc1[N+](=O)[O-] | – | 44.9 | – | 41.7 | 55.7 | 61.5 | 38.2 | > 100 | 41 | 56.1 | – | – | – | – | – | – | –
